Data: patent US20200397853A1, “TREATMENT OF A HEART DISEASE” (Yeda Research and Development Co. Ltd., priority 2018, published 2020)

Columns and labels:
Assay type in all cases: in vivo, mice
[1] = test system: mouse model of MI by LAD ligation; test: Echocardiography of heart function after myocardial infarction (LAD ligation)
Experimental: (§1) Myocardial infarction in adult mice was performed as follows: mice were sedated with isoflurane (Abbott Laboratories) and following tracheal intubation, were artificially ventilated. Lateral thoracotomy at the third intercostal space was performed by blunt dissection of the intercostal muscles following skin incision. Following ligation of the left anterior descending coronary artery, 2 mg/animal/day of
(§2) GA (batch #164F0105; 24992916) or PBS were injected according to the experimental protocol (described in the Results). Following treatment, thoracic wall incisions were sutured with 6.0 non-absorbable silk sutures, and the skin wound closed using a skin adhesive. Mice were then warmed for several minutes until recovery.
Heart function was evaluated by transthoracic echocardiography performed on sedated mice (isoflurane, Abbott Laboratories) using a Vevo 3100 VisualSonics device.
Mice were divided to the following experimental groups: […]
4. Long GA treatment—performing MI followed by GA (2 mg/animal/day) given i.p. from day 0 up to day 14 or until first animal dies. N=5.
Echo measurements were performed at baseline (day 0), day 2, day 14 and day 35 post MI. Histology analysis was performed post mortem.
Short GA treatment—performing MI followed by GA (2 mg/animal/day) administered i.p. from day 0 up to day 14. N=10. […]
In the clinic, MI patients currently reach medical care in a matter of several hours. To find out the relevance and efficacy of delayed administration of GA, the present inventors created MI by LAD ligation and treated animals at the day of injury, 24 or 48 hours post MI.

[2] = test system: mouse model of MI by LAD ligation; test: Heart section scar assessment (Masson-Trichrome) after MI
Experimental: as §1, §2
Mouse heart tissues were fixed in 4% paraformaldehyde (PFA) and sectioned. For analysis of cardiac regeneration, following myocardial infarction procedure, paraffin sections were cut through the entire ventricle from apex to base into serial sections with intervals of 0.3 mm. Paraffin sections were cut frontally to include base to apex in each section. […] Scar size was quantified in the section containing the papillary muscle region using ImageJ software based on Masson's trichrome staining. Scar size was calculated as scar size relative to total section size.

[3] = test system: infarcted hearts; test: FACS analysis of neutrophils and macrophages in infarcted hearts
Experimental: Myocardial infarction in adult mice was performed as follows: mice were sedated with isoflurane (Abbott Laboratories) and following tracheal intubation, were artificially ventilated. Lateral thoracotomy at the third intercostal space was performed by blunt dissection of the intercostal muscles following skin incision. Following ligation of the left anterior descending coronary artery, 2 mg/animal/day of GA (batch #164F0105; 24992916) or PBS were injected according to the experimental protocol (described in the Results). Following treatment, thoracic wall incisions were sutured with 6.0 non-absorbable silk sutures, and the skin wound closed using a skin adhesive. Mice were then warmed for several minutes until recovery. Single cell suspensions of hearts harvested at different time point post MI were generated immediately before analysis by flow cytometry, as previously described^21. Briefly, single hearts were minced and digested in collagenase II/Dispase solution in PBS with 1 mM CaCl2 (2 mg/ml collagenase II, 1.2 U/ml Dispase) for 3 rounds of 15 minutes at 37° C., followed by mechanical separation by pippetation. Digested samples were passed through a 40-μm filter, washed, and suspended in FACS buffer (PBS 0.5% BSA, 2 mM EDTA) for staining. Samples were stained with antibodies from Miltenyi biotec:CD45-Viogreen, CD11b-PE, Ly6G-Vioblue, Ly6C-FITC, F4/80-APC, CCR2-APC-Vio770, MHCII-PE-Vio770. 7-AAD was used as a viability marker. Staining and sample analysis were all performed by standard procedure on a LSR-II FACS machine. GA has an established influence on the immune response, especially the T-helper 2 (Th2) lymphocyte population^22-24. To investigate the molecular mechanisms of GA effects, the present inventors sought out to characterize the immune response of infarcted hearts after GA treatment. First, examining the changes in relevant immune populations. For that, infarcted hearts were analyzed by FACS using markers for neutrophils and macrophages. To follow the dynamics of the immune response after MI, injured hearts at 24 hr, 96 hr and 14 days post MI were harvested. […] The effect of GA diminishes after 96 hr, with the expected reduction in neutrophils. […] This trend was recently shown to promote cardiac regeneration^25, and therefore might explain GA regenerative effect.

[4] = test system: infarcted hearts; test: Multiplex cytokine ELISA of infarcted hearts
Experimental: Myocardial infarction in adult mice was performed as follows: mice were sedated with isoflurane (Abbott Laboratories) and following tracheal intubation, were artificially ventilated. Lateral thoracotomy at the third intercostal space was performed by blunt dissection of the intercostal muscles following skin incision. Following ligation of the left anterior descending coronary artery, 2 mg/animal/day of GA (batch #164F0105; 24992916) or PBS were injected according to the experimental protocol (described in the Results). Following treatment, thoracic wall incisions were sutured with 6.0 non-absorbable silk sutures, and the skin wound closed using a skin adhesive. Mice were then warmed for several minutes until recovery. For native protein extraction, hearts were minced using a mortar and pestle under liquid nitrogen, and the resulting powder was further homogenized using rotor—stator homogenizer with a native extraction buffer (0.5% triton in PBS with protease inhibitor cocktail). Resulting extracts were equilibrated for protein concentration, and subjected to mouse cytokine 16-plex ELISA (#110949MS, Quansys Biosciences, USA) according to manufacturer instructions. To broaden the understanding of the molecular effectors influenced by GA treatment, the cytokine milieu of the GA treated infarcted hearts was analyzed. For that, infarcted hearts were harvested at 24 h, 96 h and 14 days post MI. Native protein lysates were prepared and subjected to multiplex cytokine ELISA. At 24 hr post MI, both IL-6 and IL-10 levels were increased (FIG. 6A). […] Importantly, the levels of IL-6 as well as those of other pro-inflammatory cytokines in GA treated hearts were reduced 14 days post MI (FIG. 6C). These findings might underscore the importance of regulating a transient expression of pro-inflammatory cytokines occurring in a pro-regenerative scenario, similar to what was detected in the GA treated hearts. Another cytokine that was elevated after GA treatment was IL-4 (FIG. 6B). Both IL-10 and IL-4 are considered as anti-inflammatory cytokines that induce Th-2 differentiation, a cell population previously shown to be affected by GA (40-42). […] This chemokine was previously shown to induce IL-6 expression and to have beneficial effect on cardiac remodeling post MI^29. […] Taken together, the differential expression of cytokines in the GA treated infarcted heart might reveal the molecular mechanism that allows GA to modulate the immune response, supporting cardiac regeneration post MI.

[5] = test system: Stat3; test: Western-blot analysis of pStat3 in hearts post MI; details: 4 days after injury (FIG. 7)
Experimental: as §1, §2
Western blotting was performed with the SDS-PAGE Electrophoresis System. Sample extracts were prepared and transferred to PVDF membranes. The following primary antibodies were used: anti-Gapdh (Sigma, PLA0125, 1:3000), anti-pStat3 (1:1000) Horseradish peroxidase anti-mouse, anti-rabbit or anti-goat (Sigma-Aldrich, 1:2000) were used as a secondary antibody.

glatiramer acetate [GA]
fractional shortening (FS), reduction from baseline ([1]; 35 d after MI, GA i.p. 14 d vs PBS (FIG. 1C)): smaller reduction | cardiac function (EF and FS) ([1]; 35 days after MI, larger group, all animals treated by the protocol, vs PBS (FIGS. 2A, B)): improved significantly | EF of the 3 representative treated mice ([1]; 35 d post MI, vs PBS (FIG. 3B)): improved EF | Ejection Fraction (EF) ([1]; 35 d post injury, GA 2 mg/animal/day i.p. day 0 to 14, vs PBS (FIG. 1A)): clear beneficial effect | cardiac function (EF, FS), treatment delayed 24 hours ([1]; treatment started 24 hours post MI, similar levels to treatment at the day of injury (FIGS. 4A-B)): improved cardiac function | cardiac function (EF, FS), treatment delayed 48 hours ([1]; treatment started 48 hours post MI, similar levels to treatment at the day of injury (FIGS. 4A-B)): improved cardiac function | cardiac scarring (Masson-Trichrome stained area relative to total area) ([2]; 35 days after MI, larger group, vs PBS (FIG. 2C)): improved significantly | scar area of the 3 representative treated mice ([2]; 35 d post MI, Masson-Trichrome, vs PBS (FIG. 3A)): smaller scar area | fraction of neutrophils in the infarcted hearts ([3]; 24 h post MI, vs PBS (FIGS. 5A, B)): decreased | macrophage fraction of immune cells ([3]; 24 hr post MI, vs PBS (FIGS. 5C, D)): increase | effect on macrophage fraction ([3]; after 96 hr post MI): diminished | effect on neutrophils ([3]; after 96 hr post MI): diminishes | IL-6 level ([4]; 24 hr post MI (FIG. 6A)): increased | IL-10 level ([4]; 24 hr post MI (FIG. 6A)): increased | levels of Monocyte Chemoattractant Protein-1 (MCP-1) ([4]; 96 hr post MI (FIG. 6B)): significant enhancement | IL-6 level ([4]; 14 days post MI (FIG. 6C)): reduced | levels of other pro-inflammatory cytokines ([4]; 14 days post MI (FIG. 6C)): reduced | IL-4 level ([4]; FIG. 6B): elevated | levels of phosphorylated Stat3 (pStat3) [5]: increased levels | levels of phosphorylated Stat3 (pStat3) ([5]; listed as Cop): upregulation
